US12448373B2, “Azetidinyl-acetamides as CXCR7 inhibitors” (CHEMOCENTRYX, INC., priority 2021, dated 2025)

The molecules below were run against T1, CXCR7 (Homo sapiens, UniProt P25106) (assay: CXCR7 β-arrestin recruitment assay in CHO-CXCR7 cells (ProLink/EA β-galactosidase complementation), induced by human SDF-1a). Details: assay buffer, SDF-1a at EC50 concentration.
T1 construct: expressed in transfected cells; host or cells: CHO cells (CHO-CXCR7), transgenes maintained with Hygromycin B and G418
T1 sequence (P25106 whole entry): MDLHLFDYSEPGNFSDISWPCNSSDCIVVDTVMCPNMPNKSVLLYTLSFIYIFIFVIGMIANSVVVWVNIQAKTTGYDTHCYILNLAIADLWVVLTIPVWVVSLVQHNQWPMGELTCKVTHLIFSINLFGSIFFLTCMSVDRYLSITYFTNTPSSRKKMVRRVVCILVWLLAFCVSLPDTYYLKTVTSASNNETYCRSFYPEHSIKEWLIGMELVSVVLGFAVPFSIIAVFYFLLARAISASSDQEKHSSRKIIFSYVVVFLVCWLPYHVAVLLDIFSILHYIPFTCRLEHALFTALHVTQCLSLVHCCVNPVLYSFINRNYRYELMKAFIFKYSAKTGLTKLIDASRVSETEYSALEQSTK
Assay type: cell-based
Procedure, shortened: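 SDF-1α-induced β-arrestin recruitment was measured by enzyme-fragment complementation (ProLink-CXCR7 with β-arrestin-EA) in stable CHO cells. Agonist was dosed at its EC50, determined the same day, alongside serially diluted compound for 1.5 h at 37 °C. Fluorogenic galactoside substrate (0.4 mM, 30 min) was read at 360/465 nm, with IC50 from 3-parameter nonlinear regression.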

SMILES | IC50
CC(C)(O)CN1CC(CC(=O)NC(C)(C)c2cccc(C#N)c2)(NC(=O)c2cc(-c3ccc(F)cc3F)on2)C1 [Example 1.145] | 5 to 100 nM
Cc1cc(Cl)cc(C(C)(C)NC(=O)CC2(NC(=O)c3cc(-c4ccc(F)cc4F)on3)CN([C@H]3CC[C@](C)(O)CC3)C2)c1 [Example 1.090] | < 5 nM
Cc1cc(C(C)(C)NC(=O)CC2(NC(=O)c3cc(-c4ccc(F)cc4F)on3)CN(CC3COC3)C2)ccn1 [Example 1.136] | 100 to 1000 nM
Cc1cc(C)nc(C(C)(C)NC(=O)CC2(NC(=O)c3nnc(-c4ccc(F)cc4F)o3)CN([C@H]3CC[C@](C)(O)CC3)C2)n1 [Example 1.055] | 100 to 1000 nM
CC(C)(NC(=O)CC1(NC(=O)c2cc(-c3ccc(F)cc3F)on2)CN(CC2CCC2)C1)c1ccccn1 [Example 1.020] | 5 to 100 nM
CC(C)(NC(=O)CC1(NC(=O)c2cn(-c3ccc(F)cc3F)nn2)CN([C@H]2CC[C@@](C)(O)CC2)C1)c1cccc(Cl)c1 [Example 1.066] | 5 to 100 nM
C[C@]1(O)CC[C@@H](N2CC(CC(=O)NCc3cccc(Cl)c3)(NC(=O)c3cc(-c4ccc(F)cc4F)on3)C2)CC1 [Example 1.109] | 100 to 1000 nM
CC(C)CN1CC(CC(=O)NC(C)(C)c2cc(F)cc(F)c2)(NC(=O)c2cc(-c3ccc(F)cc3F)on2)C1 [Example 1.036] | 5 to 100 nM
Cc1cc(C(C)(C)NC(=O)CC2(NC(=O)c3cc(-c4ccc(F)cc4F)on3)CN([C@H]3CC[C@](C)(O)CC3)C2)nc(C)n1 [Example 1.079] | 5 to 100 nM
CC(C)(NC(=O)CC1(NC(=O)c2nnc(-c3ccc(F)cc3F)s2)CN([C@H]2CC[C@@](C)(O)CC2)C1)c1ccccn1 [Example 1.062] | 5 to 100 nM
CC(C)(NC(=O)CC1(NC(=O)c2cc(-c3ccc(F)cc3F)on2)CN(CC2COC2)C1)c1cccc(Cl)c1 [Example 1.135] | 100 to 1000 nM
C[C@]1(O)CC[C@H](N2CC(CC(=O)NC3(c4cccc(Cl)c4)COC3)(NC(=O)c3cc(-c4ccc(F)cc4F)on3)C2)CC1 [Example 1.103] | 5 to 100 nM
Cc1cccc(C(C)(C)NC(=O)CC2(NC(=O)c3cc(-c4ccc(F)cc4F)on3)CN(CC(C)C)C2)n1 [Example 1.026] | 5 to 100 nM
CC(C)(NC(=O)CC1(NC(=O)c2cc(-c3ccc(F)cc3F)on2)CN(CC2CCCC2)C1)c1ccccn1 [Example 1.029] | 5 to 100 nM
CC(C)(NC(=O)CC1(NC(=O)c2cc(-c3ccc(F)cc3F)on2)CN(C2CC3(CC3)C2)C1)c1ccccn1 [Example 1.015] | 5 to 100 nM
CC(C)(F)CN1CC(CC(=O)NC(C)(C)c2cccc(Cl)c2)(NC(=O)c2cc(-c3ccc(F)cc3F)on2)C1 [Example 1.096] | 100 to 1000 nM
Cc1cc(C)nc(C(C)(C)NC(=O)CC2(NC(=O)c3cc(-c4ccc(F)cc4F)on3)CN(CC(C)C)C2)n1 [Example 1.037] | 5 to 100 nM
CC(C)(NC(=O)CC1(NC(=O)c2cc(-c3ccc(F)cc3F)on2)CN([C@H]2CC[C@@](C)(O)CC2)C1)c1ccnc(C2CC2)c1 [Example 1.146] | 5 to 100 nM
Cc1cccnc1C(C)(C)NC(=O)CC1(NC(=O)c2nnc(-c3ccc(F)cc3F)s2)CN([C@H]2CC[C@](C)(O)CC2)C1 [Example 1.012] | 100 to 1000 nM
CC(C)(NC(=O)CC1(NC(=O)c2cc(-c3ccc(F)cc3F)on2)CN([C@H]2CC[C@](C)(O)CC2)C1)c1ccccn1 [Example 1.035] | 5 to 100 nM
CC(C)(NC(=O)CC1(NC(=O)c2nnc(-c3ccc(F)cc3F)s2)CN([C@H]2CC[C@](C)(O)CC2)C1)c1cc(F)ccc1F [Example 1.024] | 5 to 100 nM
CC1(CN2CC(CC(=O)NC(C)(C)c3ccccn3)(NC(=O)c3cc(-c4ccc(F)cc4F)on3)C2)CCC1 [Example 1.002] | < 5 nM
CC(C)(NC(=O)CC1(NC(=O)c2cc(-c3ccc(F)cc3F)on2)CN([C@H]2CC[C@](C)(O)CC2)C1)c1cc(Cl)ccc1Cl [Example 1.088] | < 5 nM
Cc1ccc(F)c(C(C)(C)NC(=O)CC2(NC(=O)c3cc(-c4ccc(F)cc4F)on3)CN([C@H]3CC[C@](C)(O)CC3)C2)n1 [Example 1.008] | < 5 nM

Further lines, results first:

IC50 | SMILES
5 to 100 nM | CC(C)(NC(=O)CC1(NC(=O)c2cc(-c3ccc(F)cc3F)on2)CN(C2CCC3(CC2)COC3)C1)c1cccc(F)c1 [Example 1.234]
5 to 100 nM | Cc1ccc(C(C)(C)NC(=O)CC2(NC(=O)c3cc(-c4ccc(F)cc4F)on3)CN([C@H]3CC[C@@](C)(O)CC3)C2)c(F)c1 [Example 1.246]
100 to 1000 nM | CC(C)(O)CN1CC(CC(=O)NC(C)(C)c2ncccn2)(NC(=O)c2cc(-c3ccc(F)cc3F)on2)C1 [Example 1.231]
5 to 100 nM | CC(C)(NC(=O)CC1(NC(=O)c2cc(-c3ccc(F)cc3F)on2)CN(C2CCCCC2(F)F)C1)c1ccccn1 (centres unmarked) [Example 1.311]
< 5 nM | CC(C)(NC(=O)CC1(NC(=O)c2cc(-c3ccc(F)cc3F)on2)CN([C@H]2CC[C@@](C)(O)CC2)C1)c1cc(F)ccc1F [Example 1.235]
5 to 100 nM | Cc1cc(C(F)(F)F)cc(C(C)(C)NC(=O)CC2(NC(=O)c3nnc(-c4ccc(F)cc4F)s3)CN([C@H]3CC[C@](C)(O)CC3)C2)n1 [Example 1.349]
100 to 1000 nM | Cc1ccc(C(C)(C)NC(=O)CC2(NC(=O)c3cc(-c4ccc(F)cc4F)on3)CN([C@H]3CC[C@@](C)(O)CC3)C2)cc1C(F)(F)F [Example 1.261]
100 to 1000 nM | CC(C)(NC(=O)CC1(NC(=O)c2cc(-c3ccc(F)cc3F)on2)CN(C2CCC3(CCC3)CC2)C1)c1ccccn1 [Example 1.296]
5 to 100 nM | COc1cc(F)cc(C(C)(C)NC(=O)CC2(NC(=O)c3cc(-c4ccc(F)cc4F)on3)CN([C@H]3CC[C@](C)(O)CC3)C2)c1 [Example 1.170]
5 to 100 nM | O=C(CC1(NC(=O)c2cc(-c3ccc(F)cc3F)on2)CN(C2CCCCC2)C1)NC1(c2ccccn2)CC1 [Example 1.306]
5 to 100 nM | CC(C)(NC(=O)CC1(NC(=O)c2cc(-c3ccc(F)cc3F)on2)CN([C@H]2CC[C@](C)(O)CC2)C1)c1ccnc(C#N)c1 [Example 1.162]
5 to 100 nM | COc1cccc(C(C)(C)NC(=O)CC2(NC(=O)c3cc(-c4ccc(F)cc4F)on3)CN([C@H]3CC[C@](C)(O)CC3)C2)c1 [Example 1.239]
100 to 1000 nM | CC(C)(O)CN1CC(CC(=O)NC(C)(C)c2ccc(F)cc2)(NC(=O)c2cc(-c3ccc(F)cc3F)on2)C1 [Example 1.248]
5 to 100 nM | O=C(CC1(NC(=O)c2cc(-c3ccc(F)cc3F)on2)CN(C2CCCC2)C1)NC1(c2ncccn2)CC1 [Example 1.331]
5 to 100 nM | CC(C)(NC(=O)CC1(NC(=O)c2cc(-c3ccc(F)cc3F)on2)CN([C@H]2CC[C@](C)(O)CC2)C1)c1ccncn1 [Example 1.181]
100 to 1000 nM | CC(C)(CO)NC(=O)CC1(NC(=O)c2cc(-c3ccc(F)cc3F)on2)CN(C2CCCCC2)C1 [Example 1.309]
< 5 nM | CC(C)(NC(=O)CC1(NC(=O)c2cc(-c3ccc(F)cc3F)on2)CN(C2CCCCC2)C1)c1cccc(F)n1 [Example 1.297]
5 to 100 nM | COc1cccc(C(C)(C)NC(=O)CC2(NC(=O)c3cc(-c4ccc(F)cc4F)on3)CN([C@H]3CC[C@@](C)(O)CC3)C2)c1F [Example 1.195]

IC50 | SMILES
1000 to 20000 nM | CC(C)(O)CCN1CC(CC(=O)NC(C)(C)c2ccccn2)(NC(=O)c2cc(-c3ccc(F)cc3F)on2)C1 [Example 1.230]
1000 to 20000 nM | CC(C)(NC(=O)CC1(NC(=O)c2cc(-c3ccc(F)cc3F)on2)CN(c2ccccn2)C1)c1ccccn1 [Example 1.314]
100 to 1000 nM | Cc1nc(C(C)(C)NC(=O)CC2(NC(=O)c3cc(-c4ccc(F)cc4F)on3)CN(C3CCC4(CC3)COC4)C2)sc1C [Example 1.245]
100 to 1000 nM | CC(C)(NC(=O)CC1(NC(=O)c2cc(-c3ccc(F)cc3F)on2)CN(C2CCCCC2)C1)c1cccc(C(F)(F)F)c1 [Example 1.271]
5 to 100 nM | COc1ccc(F)c(C(C)(C)NC(=O)CC2(NC(=O)c3cc(-c4ccc(F)cc4F)on3)CN([C@H]3CC[C@@](C)(O)CC3)C2)c1 [Example 1.205]
100 to 1000 nM | COc1cc(C(C)(C)NC(=O)CC2(NC(=O)c3cc(-c4ccc(F)cc4F)on3)CN(CC(C)(C)O)C2)ccn1 [Example 1.171]
100 to 1000 nM | Cc1cc(C(C)C)cc(C(C)(C)NC(=O)CC2(NC(=O)c3nnc(-c4ccc(F)cc4F)s3)CN([C@H]3CC[C@](C)(O)CC3)C2)n1 [Example 1.347]
< 5 nM | CC(C)(NC(=O)CC1(NC(=O)c2cc(-c3ccc(F)cc3F)on2)CN(C2(C)CCCCC2)C1)c1cccc(Cl)c1 [Example 1.360]
1000 to 20000 nM | Cc1cc(C)nc(C(C)(C)NC(=O)CC2(NC(=O)c3noc(-c4ccc(F)cc4F)c3C)CN(C3CCCCC3)C2)n1 [Example 1.341]
< 5 nM | CC(C)(NC(=O)CC1(NC(=O)c2cc(-c3ccc(F)cc3F)on2)CN([C@H]2CC[C@](C)(O)CC2)C1)c1ccccc1 [Example 1.268]
< 5 nM | COc1cccc(C(C)(C)NC(=O)CC2(NC(=O)c3cc(-c4ccc(F)cc4F)on3)CN([C@H]3CC[C@@](C)(O)CC3)C2)n1 [Example 1.203]
5 to 100 nM | CC(C)(NC(=O)CC1(NC(=O)c2nnc(-c3ccc(F)cc3F)s2)CN([C@H]2CC[C@](C)(O)CC2)C1)c1cc(Cl)ccc1F [Example 1.336]
5 to 100 nM | COc1ccnc(C(C)(C)NC(=O)CC2(NC(=O)c3cc(-c4ccc(F)cc4F)on3)CN([C@H]3CC[C@@](C)(O)CC3)C2)c1 [Example 1.200]
100 to 1000 nM | Cc1ccc(C(C)(C)NC(=O)CC2(NC(=O)c3cc(-c4ccc(F)cc4F)on3)CN([C@H]3CC[C@](C)(O)CC3)C2)c(F)c1 [Example 1.247]
5 to 100 nM | Cc1cccc(C(C)(C)NC(=O)CC2(NC(=O)c3cc(-c4ccc(F)cc4F)on3)CN(CC3(C)COC3)C2)n1 [Example 1.217]
5 to 100 nM | Cc1cc(C(C)(C)NC(=O)CC2(NC(=O)c3cc(-c4ccc(F)cc4F)on3)CN(C3CCC4(CC3)COC4)C2)ccn1 [Example 1.159]
5 to 100 nM | O=C(CC1(NC(=O)c2cc(-c3ccc(F)cc3F)on2)CN(C2CCCCC2)C1)NC1(c2ncccn2)CC1 [Example 1.332]
